# According to US11427567B2, “Imidazolyl pyrimidinylamine compounds as CDK2 inhibitors” (Incyte Corporation, priority 2019, dated 2022):
# Molecular target: CDK2/Cyclin E1 (Homo sapiens (Human), UniProt P24941)
# Experiment: CDK2/Cyclin E1 HTRF enzyme activity assay (Example A)
# Format: biochemical
# Conditions: 1 mM ATP
# Description: Assays were conducted in white 384-well polystyrene plates in a final reaction volume of 8 μL. […] HTRF signals were read after 1 hour at room temperature on a PHERAstar FS plate reader (BMG Labtech). Data was analyzed with IDBS XLFit and GraphPad Prism 5.0 software using a three or four parameter dose response curve to determine IC50 for each compound.
row,IC50,SMILES
1,≤ 50 nM,"CCNCc1cc(F)c(-n2cnc(-c3nc(N[C@@H]4CCN(S(C)(=O)=O)C[C@H]4F)ncc3C(F)(F)F)c2)c(F)c1 [Example 390, 4-(1-(4-((Ethylamino)methyl)-2,6-difluorophenyl)-1H-imidazol-4-yl)-N-((3R,4R)-3-fluoro-1-(methylsulfonyl)piperidin-4-yl)-5-(trifluoromethyl)pyrimidin-2-amine]"
2,≤ 50 nM,"CC1(C)CN(Cc2ccc(-n3cnc(-c4nc(NC5CCN(S(C)(=O)=O)CC5)ncc4C(F)(F)F)c3)c(Cl)c2)C1 [Example 200, 4-(1-(2-Chloro-4-((3,3-dimethyl-azetidin-1-yl)methyl)-phenyl)-1H-imidazol-4-yl)-N-(1-(methyl-sulfonyl)piperidin-4-yl)-5-(trifluoromethyl)-pyrimidin-2-amine]"
3,≤ 50 nM,"CN1CCN(c2nccc(-n3cnc(-c4nc(NC5CCN(S(C)(=O)=O)CC5)ncc4C(F)(F)F)c3)c2C#N)CC1 [Example 316, 2-(4-Methylpiperazin-1-yl)-4-(4-(2-((1-(methylsulfonyl)piperidin-4-yl)amino)-5-(trifluoromethyl)pyrimidin-4-yl)-1H-imidazol-1-yl)nicotinonitrile]"
4,≤ 50 nM,"Cc1nc(-c2nc(NC3CCN(S(C)(=O)=O)CC3)ncc2C(F)(F)F)cn1-c1ccc(CCCN2CCC2)cc1F [Example 459, 4-(1-(4-(3-(Azetidin-1-yl)propyl)-2-fluorophenyl)-2-methyl-1H-imidazol-4-yl)-N-(1-(methylsulfonyl)piperidin-4-yl)-5-(trifluoromethyl)pyrimidin-2-amine]"
5,≤ 50 nM,"CC(C)N1CC(c2ccc(-n3cnc(-c4nc(NC5CCN(S(C)(=O)=O)CC5)ncc4C(F)(F)F)c3)c(C#N)c2)C1 [Example 427, 5-(1-Isopropylazetidin-3-yl)-2-(4-(2-((1-(methylsulfonyl)piperidin-4-yl)amino)-5-(trifluoromethyl)pyrimidin-4-yl)-1H-imidazol-1-yl)benzonitrile]"
6,≤ 50 nM,"CC(=O)NCc1ccc(-n2cnc(-c3nc(NC4CCN(S(C)(=O)=O)CC4)ncc3C(F)(F)F)c2)c(Cl)c1 [Example 185, N-(3-Chloro-4-(4-(2-((1-(methylsulfonyl)piperidin-4-yl)amino)-5-(trifluoromethyl)pyrimidin-4-yl)-1H-imidazol-1-yl)benzyl)acetamide]"
7,≤ 50 nM,"Cc1c(-n2cnc(-c3nc(NC4CCN(S(C)(=O)=O)CC4)ncc3C(F)(F)F)c2)ccc2nccnc12 [Example 166, 4-(1-(5-Methylquinoxalin-6-yl)-1H-imidazol-4-yl)-N-(1-(methylsulfonyl)piperidin-4-yl)-5-(trifluoromethyl)pyrimidin-2-amine]"
8,≤ 50 nM,"CS(=O)(=O)N1CCC(Nc2ncc(C(F)(F)F)c(-c3cn(-c4ccc(CCN5CCCCC5)cc4C#N)cn3)n2)CC1 [Example 458, 2-(4-(2-((1-(Methylsulfonyl)piperidin-4-yl)amino)-5-(trifluoromethyl)pyrimidin-4-yl)-1H-imidazol-1-yl)-5-(2-(piperidin-1-yl)ethyl)benzonitrile]"
9,≤ 50 nM,"Cc1c(-n2cnc(-c3nc(NC4CCN(S(=O)(=O)c5cn(C)cn5)CC4)ncc3C(F)(F)F)c2)ccnc1C#N [Example 7, 3-Methyl-4-(4-(2-((1-((1-methyl-1H-imidazol-4-yl)sulfonyl)piperidin-4-yl)amino)-5-(trifluoromethyl)pyrimidin-4-yl)-1H-imidazol-1-yl)picolinonitrile]"
10,≤ 50 nM,CCNCc1ccc(-n2cnc(-c3nc(N[C@@H]4CCN(S(C)(=O)=O)C[C@H]4F)ncc3C(F)(F)F)c2)c(Cl)c1 [Example 401]
11,≤ 50 nM,"Cc1cccc(-n2cnc(-c3nc(NC4CCN(S(C)(=O)=O)CC4)ncc3C(F)(F)F)c2)c1C#N [Example 61, 2-Methyl-6-(4-(2-((1-(methylsulfonyl)piperidin-4-yl)amino)-5-(trifluoromethyl)pyrimidin-4-yl)-1H-imidazol-1-yl)benzonitrile]"
12,≤ 50 nM,"Cc1nc(CN(C)C)ccc1-n1cnc(-c2nc(NC3CCN(S(C)(=O)=O)CC3)ncc2C(F)(F)F)c1 [Example 263, 4-(1-(6-((Dimethylamino)methyl)-2-methylpyridin-3-yl)-1H-imidazol-4-yl)-N-(1-(methylsulfonyl)piperidin-4-yl)-5-(trifluoromethyl)pyrimidin-2-amine]"
13,≤ 50 nM,"CC(C)(O)Cn1cnc(-c2nc(N[C@H]3CCN(S(=O)(=O)C4CC4)C[C@H]3F)ncc2C(F)(F)F)c1 [Example 323, 1-(4-(2-(((3R,4S)-1-(Cyclopropylsulfonyl)-3-fluoropiperidin-4-yl)amino)-5-(trifluoromethyl)pyrimidin-4-yl)-1H-imidazol-1-yl)-2-methylpropan-2-ol]"
14,≤ 50 nM,"CCN1CCC(c2ccc(-n3cnc(-c4nc(NC5CCN(S(C)(=O)=O)CC5)ncc4C(F)(F)F)c3)c(Cl)c2)CC1 [Example 438, 4-(1-(2-Chloro-4-(1-ethylpiperidin-4-yl)phenyl)-1H-imidazol-4-yl)-N-(1-(methylsulfonyl)piperidin-4-yl)-5-(trifluoromethyl)pyrimidin-2-amine]"
